Data reported in PubChem BioAssay AID1963847 (Molecular Pharmacology Branch, DTP, NCI, 2024).

System: 415267-285-R-J2-PDC complex spheroid viability
Experiment: Anticancer human tumor 415267-285-R-J2-PDC patient-derived breast carcinoma cell line growth inhibition [POLQ]
Settings: for IC50: curve of first compound; for viability, T/C: stronger effect = lower value
Procedure, shortened: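 Complex spheroid viability model combining PDC tumour cells with endothelial (HUVEC) and MSC stromal cells. Novobiocin, ART-558 or RP6685 were tested singly and in combination with standard and investigational anticancer drugs. Each was titrated in half-log steps from near clinical Cmax, or from 10 microM where Cmax was unknown.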

[1] = second compound 0.0316 µM, first compound 0.0316 µM
[2] = second compound 0.0316 µM, first compound 0.1 µM
[3] = second compound 0.0316 µM, first compound 0.316 µM
[4] = second compound 0.0316 µM, first compound 1 µM
[5] = second compound 0.0316 µM, first compound 3.16 µM
[6] = second compound 0.0316 µM, first compound 10 µM
[7] = second compound 0.1 µM, first compound 0.0316 µM
[8] = second compound 0.1 µM, first compound 0.1 µM
[9] = second compound 0.1 µM, first compound 0.316 µM
[10] = second compound 0.1 µM, first compound 1 µM
[11] = second compound 0.1 µM, first compound 3.16 µM
[12] = second compound 0.1 µM, first compound 10 µM
[13] = second compound 0.316 µM, first compound 0.0316 µM
[14] = second compound 0.316 µM, first compound 0.1 µM
[15] = second compound 0.316 µM, first compound 0.316 µM
[16] = second compound 0.316 µM, first compound 1 µM
[17] = second compound 0.316 µM, first compound 3.16 µM
[18] = second compound 0.316 µM, first compound 10 µM
[19] = second compound 1 µM, first compound 0.0316 µM
[20] = second compound 1 µM, first compound 0.1 µM
[21] = second compound 1 µM, first compound 0.316 µM
[22] = second compound 1 µM, first compound 1 µM
[23] = second compound 1 µM, first compound 3.16 µM
[24] = second compound 1 µM, first compound 10 µM
[25] = second compound 3.16 µM, first compound 0.0316 µM
[26] = second compound 3.16 µM, first compound 0.1 µM
[27] = second compound 3.16 µM, first compound 0.316 µM
[28] = second compound 3.16 µM, first compound 1 µM
[29] = second compound 3.16 µM, first compound 3.16 µM
[30] = second compound 3.16 µM, first compound 10 µM
[31] = second compound 10 µM, first compound 0.0316 µM
[32] = second compound 10 µM, first compound 0.1 µM
[33] = second compound 10 µM, first compound 0.316 µM
[34] = second compound 10 µM, first compound 1 µM
[35] = second compound 10 µM, first compound 3.16 µM
[36] = second compound 10 µM, first compound 10 µM
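Note: spheroids exposed to compounds for one week before readout.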
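Throughout, for viability, T/C: luminescence used as stand-in measure of viable cells; 100% = DMSO vehicle control viability.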

## CCCS(=O)(=O)Nc1ccc(F)c(C(=O)c2c[nH]c3ncc(-c4ccc(Cl)cc4)cc23)c1F + COC1C(OC(N)=O)C(O)C(Oc2ccc3c(O)c(NC(=O)c4ccc(O)c(CC=C(C)C)c4)c(=O)oc3c2C)OC1(C)C
Second compound 0.0316 µM
  IC50: > 10 µM
Second compound 0.1 µM
  IC50: > 10 µM
Second compound 0.316 µM
  IC50: > 10 µM
Second compound 1 µM
  IC50: > 10 µM
Second compound 3.16 µM
  IC50: > 10 µM
Second compound 10 µM
  IC50: > 10 µM
[1]
  viability, T/C: 123%
[2]
  viability, T/C: 102%
[3]
  viability, T/C: 94.5%
[4]
  viability, T/C: 89%
[5]
  viability, T/C: 110%
[6]
  viability, T/C: 66.4%
[7]
  viability, T/C: 103%
[8]
  viability, T/C: 100%
[9]
  viability, T/C: 97.3%
[10]
  viability, T/C: 101%
[11]
  viability, T/C: 111%
[12]
  viability, T/C: 66.5%
[13]
  viability, T/C: 101%
[14]
  viability, T/C: 105%
[15]
  viability, T/C: 99%
[16]
  viability, T/C: 104%
[17]
  viability, T/C: 92.4%
[18]
  viability, T/C: 70.9%
[19]
  viability, T/C: 103%
[20]
  viability, T/C: 106%
[21]
  viability, T/C: 94%
[22]
  viability, T/C: 94.8%
[23]
  viability, T/C: 92.6%
[24]
  viability, T/C: 64.7%
[25]
  viability, T/C: 109%
[26]
  viability, T/C: 96.6%
[27]
  viability, T/C: 90.2%
[28]
  viability, T/C: 95.2%
[29]
  viability, T/C: 101%
[30]
  viability, T/C: 60.5%
[31]
  viability, T/C: 116%
[32]
  viability, T/C: 106%
[33]
  viability, T/C: 97.8%
[34]
  viability, T/C: 91.4%
[35]
  viability, T/C: 93.2%
[36]
  viability, T/C: 88.4%

## CNCc1ccc(-c2[nH]c3cc(F)cc4c3c2CCNC4=O)cc1 + COC1C(OC(N)=O)C(O)C(Oc2ccc3c(O)c(NC(=O)c4ccc(O)c(CC=C(C)C)c4)c(=O)oc3c2C)OC1(C)C
Second compound 0.0316 µM
  IC50: > 10 µM
Second compound 0.1 µM
  IC50: > 10 µM
Second compound 0.316 µM
  IC50: > 10 µM
Second compound 1 µM
  IC50: > 10 µM
Second compound 3.16 µM
  IC50: > 10 µM
Second compound 10 µM
  IC50: > 10 µM
[1]
  viability, T/C: 114%
[2]
  viability, T/C: 104%
[3]
  viability, T/C: 99%
[4]
  viability, T/C: 113%
[5]
  viability, T/C: 117%
[6]
  viability, T/C: 113%
[7]
  viability, T/C: 97.7%
[8]
  viability, T/C: 103%
[9]
  viability, T/C: 117%
[10]
  viability, T/C: 107%
[11]
  viability, T/C: 106%
[12]
  viability, T/C: 106%
[13]
  viability, T/C: 95.7%
[14]
  viability, T/C: 109%
[15]
  viability, T/C: 95.3%
[16]
  viability, T/C: 114%
[17]
  viability, T/C: 102%
[18]
  viability, T/C: 98.8%
[19]
  viability, T/C: 115%
[20]
  viability, T/C: 105%
[21]
  viability, T/C: 97.8%
[22]
  viability, T/C: 127%
[23]
  viability, T/C: 102%
[24]
  viability, T/C: 98.7%
[25]
  viability, T/C: 95%
[26]
  viability, T/C: 99.4%
[27]
  viability, T/C: 120%
[28]
  viability, T/C: 116%
[29]
  viability, T/C: 102%
[30]
  viability, T/C: 104%
[31]
  viability, T/C: 104%
[32]
  viability, T/C: 108%
[33]
  viability, T/C: 104%
[34]
  viability, T/C: 106%
[35]
  viability, T/C: 99.9%
[36]
  viability, T/C: 111%
